# In ChEMBL document CHEMBL1133292, “Some selective reactions of moenomycin A” (Bioorg Med Chem Lett, 2000):
# Tests used:
# [1] = Compound was coli; parameters: species or system Escherichia coli
# [2] = Compound was coli; Inactive; parameters: species or system Escherichia coli
SMILES,IC50 [1] [nM l-1],IC50 [2]
C=CC(C)(CC/C=C(\C)CCC=C(C)C)C(O)CO[C@H](COP(=O)(O)O[C@H]1O[C@@H](C(N)=O)[C@@](C)(O)[C@H](OC(N)=O)[C@@H]1O[C@@H]1O[C@@H](CO[C@@H]2O[C@@H](CO)[C@@H](O)[C@H](O)[C@@H]2O)[C@@H](O[C@@H]2O[C@@H](C)[C@@H](O[C@@H]3O[C@@H](C(N)=O)[C@H](O)[C@H](O)[C@@H]3O)[C@H](O)[C@@H]2NC(C)=O)[C@H](O)[C@@H]1NC(C)=O)C(=O)O (stereo not given in full),106,–
CCCCCCCCCCCCCCNCCO[C@H](COP(=O)(O)O[C@H]1O[C@@H](C(N)=O)[C@@](C)(O)[C@H](OC(N)=O)[C@@H]1O[C@@H]1O[C@@H](CO[C@@H]2O[C@@H](CO)[C@@H](O)[C@H](O)[C@@H]2O)[C@@H](O[C@@H]2O[C@@H](C)[C@@H](O[C@@H]3O[C@@H](C(N)=O)[C@H](O)[C@H](O)[C@@H]3O)[C@H](O)[C@@H]2NC(C)=O)[C@H](O)[C@@H]1NC(C)=O)C(=O)O,247,–
CCCCCCCCc1ccc(NCCO[C@H](COP(=O)(O)O[C@H]2O[C@@H](C(N)=O)[C@@](C)(O)[C@H](OC(N)=O)[C@@H]2O[C@@H]2O[C@@H](CO[C@@H]3O[C@@H](CO)[C@@H](O)[C@H](O)[C@@H]3O)[C@@H](O[C@@H]3O[C@@H](C)[C@@H](O[C@@H]4O[C@@H](C(N)=O)[C@H](O)[C@H](O)[C@@H]4O)[C@H](O)[C@@H]3NC(C)=O)[C@H](O)[C@@H]2NC(C)=O)C(=O)O)cc1,31,–
CC(=O)N[C@@H]1[C@H](O[C@H]2[C@H](O)[C@H](NC(C)=O)[C@H](O[C@@H]3[C@@H](OP(=O)(O)OC[C@@H](OCCN(C4CCCCC4)C4CCCCC4)C(=O)O)O[C@@H](C(N)=O)[C@@](C)(O)[C@@H]3OC(N)=O)O[C@H]2CO[C@@H]2O[C@@H](CO)[C@@H](O)[C@H](O)[C@@H]2O)O[C@@H](C)[C@@H](O[C@@H]2O[C@@H](C(N)=O)[C@H](O)[C@H](O)[C@@H]2O)[C@@H]1O,–,Not Active
C=C(C/C=C(\C)CCC=C(C)C)CCC(C)(C)/C=C/CC/C(C)=C/CO[C@@H](COP(=O)(O)O[C@H]1O[C@H](C(N)=O)[C@@](C)(O)[C@H](OC(N)=O)[C@H]1O[C@@H]1O[C@H](CO[C@@H]2O[C@H](CO)[C@@H](O)[C@H](O)[C@H]2O)[C@@H](O[C@@H]2O[C@H](C)[C@@H](O[C@@H]3O[C@H](C(=O)NC4=C(O)CCC4=O)[C@H](O)[C@H](O)[C@H]3O)[C@H](O)[C@H]2NC(C)=O)[C@H](O)[C@H]1NC(C)=O)C(=O)O [MOENOMYCIN A],1.5,–
